Literature values, collected in patent publication US20050065183A1 (priority 2003, published 2005).

Test system: muscarinic

## CC(C)(C(=O)O)c1ccc(C(O)CCCN2CCC(C(O)(c3ccccc3)c3ccccc3)CC2)cc1 (stereo not drawn) [Fexofenadine, 4-[4-[4-(hydroxydiphenylmethyl)-1-piperidinyl]-1-hydroxybutyl]-α,α-dimethylbenzeneacetic acid]
  antimuscarinic activity: weak
